Laboratory results as given in patent US20200396973A1, “PSORIASIS-INDUCED ANIMAL MODEL AND USE THEREOF” (CUROGEN TECHNOLOGY CO., LTD., priority 2016, published 2020).

System: Peli1 transgenic mice (rtTA-Peli1)
Method: Tissues of mice were fixed using 10% neutral buffered formalin to produce paraffin blocks. Sections having a thickness of 3 μm were obtained from the paraffin blocks, and then stained with hematoxylin & eosin (H&E). In the case of immunohistochemistry, staining was performed using an anti-K14 antibody, an anti-Ki67 antibody, an anti-CD31 antibody, and an anti-CD3 antibody, followed by mounting using a mounting medium containing a DAPI reagent. Images of the stained tissue samples were acquired using an AxioCam digital microscope camera and AxioVision image processing software (Carl Zeiss).

## CN(Cc1cnc2nc(N)nc(N)c2n1)c1ccc(C(=O)N[C@@H](CCC(=O)O)C(=O)O)cc1 [methotrexate]
rtTA-Peli1 mice with psoriasis phenotypes after doxycycline, intraperitoneal injection for a certain period, FIG. 8D
  thickness of the skin: about half of the thickness of the skin was reduced
rtTA-Peli1 mice, doxycycline 12 weeks, after administration of CsA or MTX, FIG. 8B
  increase in the thickness of the skin according to the proliferation of epidermal cells (H&E staining): still observed
rtTA-Peli1 mice, doxycycline 12 weeks, then CsA 6 times a week or MTX 4 times a week intraperitoneally, FIG. 8B
  phenotypes of parakeratosis, hyperkeratosis, rete ridge, and microabscess (skin layer structure, H&E staining): most of the phenotypes of parakeratosis, hyperkeratosis, rete ridge, and microabscess shown in the Peli1 transgenic mice (rtTA-Peli1) disappeared
rtTA-Peli1 mice, doxycycline 12 weeks, then intraperitoneal injection for a certain period, scoring per Table 1, FIG. 8C
  psoriasis phenotype score: reduced
